# Measured values published in ChEMBL document CHEMBL3352660, “Design, synthesis and pharmacological evaluation of novel polycyclic heteroarene ethers as PDE10A inhibitors: part II” (Bioorg Med Chem Lett, 2014).
# Legend:
# [1] = molecular target: T1, cAMP and cAMP-inhibited cGMP 3',5'-cyclic phosphodiesterase 10A (Homo sapiens, UniProt Q9Y233); assay: Inhibition of human recombinant GST-tagged PDE10A using [3H]-cAMP as substrate at 1 uM after 30 mins by scintillation proximity assay
# [2] = molecular target: T1, cAMP and cAMP-inhibited cGMP 3',5'-cyclic phosphodiesterase 10A; assay: Inhibition of human recombinant GST-tagged PDE10A using [3H]-cAMP as substrate after 30 mins by scintillation proximity assay
# [3] = molecular target: T2, cAMP and cAMP-inhibited cGMP 3',5'-cyclic phosphodiesterase 10A (Rattus norvegicus, UniProt Q9QYJ6); assay: Inhibition of rat recombinant GST-tagged PDE10A using [3H]-cAMP as substrate by scintillation proximity assay
# T2 sequence (Q9QYJ6 whole entry): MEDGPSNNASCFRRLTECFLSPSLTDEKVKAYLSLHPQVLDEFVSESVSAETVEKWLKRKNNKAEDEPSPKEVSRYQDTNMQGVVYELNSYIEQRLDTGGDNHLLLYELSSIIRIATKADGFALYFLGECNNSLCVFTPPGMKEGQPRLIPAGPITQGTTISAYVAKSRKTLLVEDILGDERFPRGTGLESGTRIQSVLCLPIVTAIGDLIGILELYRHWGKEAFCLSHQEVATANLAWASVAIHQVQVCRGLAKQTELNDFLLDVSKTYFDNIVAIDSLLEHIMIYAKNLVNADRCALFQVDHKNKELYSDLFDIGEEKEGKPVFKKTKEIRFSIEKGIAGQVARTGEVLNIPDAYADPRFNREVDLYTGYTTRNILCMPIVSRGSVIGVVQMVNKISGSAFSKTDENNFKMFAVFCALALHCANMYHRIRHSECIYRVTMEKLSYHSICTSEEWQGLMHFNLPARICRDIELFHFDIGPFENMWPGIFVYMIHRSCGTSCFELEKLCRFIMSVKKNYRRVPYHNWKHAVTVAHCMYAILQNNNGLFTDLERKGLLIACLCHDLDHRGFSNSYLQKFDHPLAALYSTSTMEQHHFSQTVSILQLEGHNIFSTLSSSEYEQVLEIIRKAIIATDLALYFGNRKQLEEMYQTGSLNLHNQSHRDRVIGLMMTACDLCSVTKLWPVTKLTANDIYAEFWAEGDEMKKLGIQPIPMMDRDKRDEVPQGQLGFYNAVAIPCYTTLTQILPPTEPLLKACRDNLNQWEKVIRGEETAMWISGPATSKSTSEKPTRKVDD
# [4] = molecular target: T3, cAMP and cAMP-inhibited cGMP 3',5'-cyclic phosphodiesterase 10A (Mus musculus, UniProt Q8CA95); assay: Inhibition of mouse recombinant GST-tagged PDE10A using [3H]-cAMP as substrate after 30 mins by scintillation proximity assay
# T3 sequence (Q8CA95 whole entry): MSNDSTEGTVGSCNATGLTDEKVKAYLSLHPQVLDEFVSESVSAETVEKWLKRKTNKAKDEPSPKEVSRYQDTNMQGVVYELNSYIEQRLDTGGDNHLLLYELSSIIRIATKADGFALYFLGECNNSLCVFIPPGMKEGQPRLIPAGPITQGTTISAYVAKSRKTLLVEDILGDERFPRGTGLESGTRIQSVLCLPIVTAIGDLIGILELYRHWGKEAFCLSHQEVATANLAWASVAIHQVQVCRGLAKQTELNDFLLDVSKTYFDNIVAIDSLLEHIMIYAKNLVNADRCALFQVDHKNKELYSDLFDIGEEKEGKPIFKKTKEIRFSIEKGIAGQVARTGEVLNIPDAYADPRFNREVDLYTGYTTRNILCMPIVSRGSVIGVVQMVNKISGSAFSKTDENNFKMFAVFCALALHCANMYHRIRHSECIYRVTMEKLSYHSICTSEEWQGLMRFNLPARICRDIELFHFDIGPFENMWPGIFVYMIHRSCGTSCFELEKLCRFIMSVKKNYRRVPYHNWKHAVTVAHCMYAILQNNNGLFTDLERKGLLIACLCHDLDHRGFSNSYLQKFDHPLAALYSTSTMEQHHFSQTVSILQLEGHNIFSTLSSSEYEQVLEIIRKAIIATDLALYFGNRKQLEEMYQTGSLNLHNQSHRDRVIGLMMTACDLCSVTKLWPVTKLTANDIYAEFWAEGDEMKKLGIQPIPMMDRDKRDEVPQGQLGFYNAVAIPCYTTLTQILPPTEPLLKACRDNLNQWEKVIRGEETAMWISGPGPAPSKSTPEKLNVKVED
# [5] = molecular target: cGMP-dependent 3',5'-cyclic phosphodiesterase (Homo sapiens) (UniProt O00408); assay: Inhibition of human recombinant PDE2A using cAMP as substrate at 1 uM after 30 mins by HTRF method
# [6] = molecular target: cGMP-dependent 3',5'-cyclic phosphodiesterase (Homo sapiens) (UniProt O00408); assay: Inhibition of human recombinant PDE2A using cAMP as substrate at 10 uM after 30 mins by HTRF method
# [7] = molecular target: cGMP-inhibited 3',5'-cyclic phosphodiesterase 3A (Homo sapiens) (UniProt Q14432); assay: Inhibition of human recombinant PDE3A using cAMP as substrate at 1 uM after 30 mins by HTRF method
# [8] = molecular target: cGMP-inhibited 3',5'-cyclic phosphodiesterase 3A (Homo sapiens) (UniProt Q14432); assay: Inhibition of human recombinant PDE3A using cAMP as substrate at 10 uM after 30 mins by HTRF method
# [9] = molecular target: 3',5'-cyclic-AMP phosphodiesterase 4D (Homo sapiens) (UniProt Q08499); assay: Inhibition of human recombinant PDE4D using [3H]-cAMP as substrate at 1 uM after 30 mins by two-step radiometric assay
# [10] = molecular target: 3',5'-cyclic-AMP phosphodiesterase 4D (Homo sapiens) (UniProt Q08499); assay: Inhibition of human recombinant PDE4D using [3H]-cAMP as substrate at 10 uM after 30 mins by two-step radiometric assay
# [11] = molecular target: cGMP-specific 3',5'-cyclic phosphodiesterase (Homo sapiens) (UniProt O76074); assay: Inhibition of human recombinant PDE5A using […] as substrate at 1 uM after 30 mins by scintillation proximity assay
# [12] = molecular target: cGMP-specific 3',5'-cyclic phosphodiesterase (Homo sapiens) (UniProt O76074); assay: Inhibition of human recombinant PDE5A using […] as substrate at 10 uM after 30 mins by scintillation proximity assay
# [13] = molecular target: High affinity 3',5'-cyclic-AMP phosphodiesterase 7A (Homo sapiens) (UniProt Q13946); assay: Inhibition of human recombinant PDE7A using [3H]-cAMP as substrate at 1 uM after 30 mins by two-step radiometric assay
# [14] = molecular target: High affinity 3',5'-cyclic-AMP phosphodiesterase 7A (Homo sapiens) (UniProt Q13946); assay: Inhibition of human recombinant PDE7A using [3H]-cAMP as substrate at 10 uM after 30 mins by two-step radiometric assay
# [15] = molecular target: Dual 3',5'-cyclic-AMP and -GMP phosphodiesterase 11A (Homo sapiens) (UniProt Q9HCR9); assay: Inhibition of human recombinant PDE11A using [3H]-cAMP as substrate at 1 uM after 30 mins by two-step radiometric assay
# [16] = molecular target: Dual 3',5'-cyclic-AMP and -GMP phosphodiesterase 11A (Homo sapiens) (UniProt Q9HCR9); assay: Inhibition of human recombinant PDE11A using [3H]-cAMP as substrate at 10 uM after 30 mins by two-step radiometric assay
# [17] = Metabolic stability in Wistar rat liver microsomes incubated for 10 mins prior to NADPH addition measured after 60 mins by LC/MS/MS analysis; format: ADME; settings: read-out: Stability
# [18] = Metabolic stability in CD1 mouse liver microsomes incubated for 10 mins prior to NADPH addition measured after 60 mins by LC/MS/MS analysis; format: ADME; settings: read-out: Stability
# [19] = Metabolic stability in Beagle dog liver microsomes incubated for 10 mins prior to NADPH addition measured after 60 mins by LC/MS/MS analysis; format: ADME, Canis lupus familiaris; settings: read-out: Stability
# [20] = Metabolic stability in cynomolgus monkey liver microsomes incubated for 10 mins prior to NADPH addition measured after 60 mins by LC/MS/MS analysis; format: ADME, Macaca fascicularis; settings: read-out: Stability
# [21] = Metabolic stability in human liver microsomes incubated for 10 mins prior to NADPH addition measured after 60 mins by LC/MS/MS analysis; format: ADME; settings: read-out: Stability
# Sequence of cGMP-dependent 3',5'-cyclic phosphodiesterase (Homo sapiens) (O00408 whole entry): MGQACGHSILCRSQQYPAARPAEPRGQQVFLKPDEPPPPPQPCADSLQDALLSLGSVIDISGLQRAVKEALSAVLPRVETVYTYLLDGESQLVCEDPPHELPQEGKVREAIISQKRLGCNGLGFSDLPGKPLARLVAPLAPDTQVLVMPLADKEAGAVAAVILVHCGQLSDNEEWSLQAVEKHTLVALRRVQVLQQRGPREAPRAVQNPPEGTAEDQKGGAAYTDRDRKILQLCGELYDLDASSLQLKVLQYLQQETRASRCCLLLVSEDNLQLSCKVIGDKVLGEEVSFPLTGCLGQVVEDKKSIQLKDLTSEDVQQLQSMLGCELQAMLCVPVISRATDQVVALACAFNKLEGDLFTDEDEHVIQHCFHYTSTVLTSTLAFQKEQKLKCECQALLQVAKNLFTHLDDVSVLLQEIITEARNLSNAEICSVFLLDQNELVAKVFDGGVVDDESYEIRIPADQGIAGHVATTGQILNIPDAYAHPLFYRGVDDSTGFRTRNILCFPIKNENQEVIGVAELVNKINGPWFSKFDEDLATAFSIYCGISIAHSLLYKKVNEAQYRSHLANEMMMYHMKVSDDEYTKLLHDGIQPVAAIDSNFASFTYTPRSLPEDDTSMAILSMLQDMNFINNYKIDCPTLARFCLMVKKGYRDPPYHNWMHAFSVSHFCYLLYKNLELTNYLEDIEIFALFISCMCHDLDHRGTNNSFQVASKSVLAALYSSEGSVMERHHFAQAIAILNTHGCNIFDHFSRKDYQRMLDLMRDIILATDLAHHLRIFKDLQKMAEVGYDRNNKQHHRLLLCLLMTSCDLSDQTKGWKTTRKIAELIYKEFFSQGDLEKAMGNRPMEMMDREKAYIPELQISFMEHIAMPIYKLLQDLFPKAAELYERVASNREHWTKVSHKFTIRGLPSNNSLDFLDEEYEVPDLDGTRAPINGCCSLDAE
# Sequence of Dual 3',5'-cyclic-AMP and -GMP phosphodiesterase 11A (Homo sapiens) (Q9HCR9 whole entry, looked up): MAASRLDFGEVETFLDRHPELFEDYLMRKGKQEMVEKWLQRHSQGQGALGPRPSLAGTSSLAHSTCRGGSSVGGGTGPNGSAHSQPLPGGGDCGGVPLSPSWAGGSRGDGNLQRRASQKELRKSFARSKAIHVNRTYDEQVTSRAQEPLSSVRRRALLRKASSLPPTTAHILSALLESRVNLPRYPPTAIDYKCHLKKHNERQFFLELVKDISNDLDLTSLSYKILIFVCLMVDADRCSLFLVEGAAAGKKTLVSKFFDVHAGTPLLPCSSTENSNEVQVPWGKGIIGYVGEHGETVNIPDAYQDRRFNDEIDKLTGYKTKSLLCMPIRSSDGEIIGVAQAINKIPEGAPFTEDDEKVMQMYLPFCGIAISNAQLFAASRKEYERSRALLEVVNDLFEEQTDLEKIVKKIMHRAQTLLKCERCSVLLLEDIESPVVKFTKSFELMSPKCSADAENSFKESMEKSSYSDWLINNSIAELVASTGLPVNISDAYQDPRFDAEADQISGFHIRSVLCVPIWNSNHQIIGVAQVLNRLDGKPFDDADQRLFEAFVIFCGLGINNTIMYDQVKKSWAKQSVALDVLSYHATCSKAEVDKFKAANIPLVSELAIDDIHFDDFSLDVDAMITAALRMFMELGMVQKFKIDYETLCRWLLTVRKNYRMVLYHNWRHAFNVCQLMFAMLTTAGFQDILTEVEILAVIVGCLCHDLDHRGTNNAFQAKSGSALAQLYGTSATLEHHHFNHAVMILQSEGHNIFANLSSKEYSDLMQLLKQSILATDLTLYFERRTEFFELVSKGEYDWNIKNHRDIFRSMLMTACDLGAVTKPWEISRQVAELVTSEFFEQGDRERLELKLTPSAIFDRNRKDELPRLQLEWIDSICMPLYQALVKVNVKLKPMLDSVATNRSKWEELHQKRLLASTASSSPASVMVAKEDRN
# Sequence of 3',5'-cyclic-AMP phosphodiesterase 4D (Homo sapiens) (Q08499 whole entry): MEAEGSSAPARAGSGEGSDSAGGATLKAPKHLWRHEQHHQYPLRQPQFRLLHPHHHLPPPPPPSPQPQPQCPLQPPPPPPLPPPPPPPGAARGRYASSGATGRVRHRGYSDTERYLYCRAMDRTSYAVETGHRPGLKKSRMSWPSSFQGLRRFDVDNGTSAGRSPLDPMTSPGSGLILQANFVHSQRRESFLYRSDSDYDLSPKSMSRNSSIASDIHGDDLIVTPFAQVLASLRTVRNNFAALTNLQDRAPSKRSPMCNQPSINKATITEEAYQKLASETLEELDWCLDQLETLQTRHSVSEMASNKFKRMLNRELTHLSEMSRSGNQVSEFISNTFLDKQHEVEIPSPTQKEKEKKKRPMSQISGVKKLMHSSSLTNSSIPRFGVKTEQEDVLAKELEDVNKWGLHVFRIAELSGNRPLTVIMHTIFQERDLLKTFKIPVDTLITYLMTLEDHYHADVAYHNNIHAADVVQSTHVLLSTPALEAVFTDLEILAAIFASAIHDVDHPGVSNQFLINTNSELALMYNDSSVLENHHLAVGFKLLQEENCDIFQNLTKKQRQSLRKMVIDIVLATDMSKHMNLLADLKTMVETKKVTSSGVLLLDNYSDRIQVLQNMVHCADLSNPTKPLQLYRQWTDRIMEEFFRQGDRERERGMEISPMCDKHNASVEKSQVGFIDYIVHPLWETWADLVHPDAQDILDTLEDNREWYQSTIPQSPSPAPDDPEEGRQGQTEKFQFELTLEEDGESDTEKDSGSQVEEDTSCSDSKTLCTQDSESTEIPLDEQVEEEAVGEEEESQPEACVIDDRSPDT
# Sequence of cGMP-inhibited 3',5'-cyclic phosphodiesterase 3A (Homo sapiens) (Q14432 whole entry): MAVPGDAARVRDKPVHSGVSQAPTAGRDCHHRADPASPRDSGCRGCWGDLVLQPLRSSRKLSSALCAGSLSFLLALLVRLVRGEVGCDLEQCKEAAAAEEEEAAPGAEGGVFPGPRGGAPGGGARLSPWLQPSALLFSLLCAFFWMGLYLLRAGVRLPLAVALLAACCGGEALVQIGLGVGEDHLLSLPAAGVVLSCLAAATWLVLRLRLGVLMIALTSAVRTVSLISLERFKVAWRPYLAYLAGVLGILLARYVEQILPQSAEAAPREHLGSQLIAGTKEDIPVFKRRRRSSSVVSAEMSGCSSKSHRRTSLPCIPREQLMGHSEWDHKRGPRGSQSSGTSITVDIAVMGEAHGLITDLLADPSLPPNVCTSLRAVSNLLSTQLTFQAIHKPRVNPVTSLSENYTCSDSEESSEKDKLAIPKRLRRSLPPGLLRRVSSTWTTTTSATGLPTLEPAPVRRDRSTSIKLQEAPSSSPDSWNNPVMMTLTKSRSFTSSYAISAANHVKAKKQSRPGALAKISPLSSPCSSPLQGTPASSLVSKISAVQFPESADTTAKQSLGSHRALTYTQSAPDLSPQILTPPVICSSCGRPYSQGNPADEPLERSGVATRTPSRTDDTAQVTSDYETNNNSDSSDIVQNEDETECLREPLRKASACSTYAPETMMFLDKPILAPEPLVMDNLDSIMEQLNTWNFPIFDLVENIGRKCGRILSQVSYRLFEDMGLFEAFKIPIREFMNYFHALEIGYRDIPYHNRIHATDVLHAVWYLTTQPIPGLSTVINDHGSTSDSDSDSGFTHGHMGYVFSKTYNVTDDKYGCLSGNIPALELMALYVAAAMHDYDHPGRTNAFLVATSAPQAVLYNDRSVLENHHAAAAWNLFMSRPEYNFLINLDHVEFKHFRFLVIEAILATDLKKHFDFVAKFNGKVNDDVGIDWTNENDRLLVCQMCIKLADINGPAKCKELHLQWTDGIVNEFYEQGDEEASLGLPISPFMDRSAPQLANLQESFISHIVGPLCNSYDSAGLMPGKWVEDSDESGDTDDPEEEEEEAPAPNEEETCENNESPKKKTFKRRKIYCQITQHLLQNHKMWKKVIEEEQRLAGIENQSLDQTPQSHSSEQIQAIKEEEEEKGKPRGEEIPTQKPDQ
# T1 sequence (Q9Y233 whole entry): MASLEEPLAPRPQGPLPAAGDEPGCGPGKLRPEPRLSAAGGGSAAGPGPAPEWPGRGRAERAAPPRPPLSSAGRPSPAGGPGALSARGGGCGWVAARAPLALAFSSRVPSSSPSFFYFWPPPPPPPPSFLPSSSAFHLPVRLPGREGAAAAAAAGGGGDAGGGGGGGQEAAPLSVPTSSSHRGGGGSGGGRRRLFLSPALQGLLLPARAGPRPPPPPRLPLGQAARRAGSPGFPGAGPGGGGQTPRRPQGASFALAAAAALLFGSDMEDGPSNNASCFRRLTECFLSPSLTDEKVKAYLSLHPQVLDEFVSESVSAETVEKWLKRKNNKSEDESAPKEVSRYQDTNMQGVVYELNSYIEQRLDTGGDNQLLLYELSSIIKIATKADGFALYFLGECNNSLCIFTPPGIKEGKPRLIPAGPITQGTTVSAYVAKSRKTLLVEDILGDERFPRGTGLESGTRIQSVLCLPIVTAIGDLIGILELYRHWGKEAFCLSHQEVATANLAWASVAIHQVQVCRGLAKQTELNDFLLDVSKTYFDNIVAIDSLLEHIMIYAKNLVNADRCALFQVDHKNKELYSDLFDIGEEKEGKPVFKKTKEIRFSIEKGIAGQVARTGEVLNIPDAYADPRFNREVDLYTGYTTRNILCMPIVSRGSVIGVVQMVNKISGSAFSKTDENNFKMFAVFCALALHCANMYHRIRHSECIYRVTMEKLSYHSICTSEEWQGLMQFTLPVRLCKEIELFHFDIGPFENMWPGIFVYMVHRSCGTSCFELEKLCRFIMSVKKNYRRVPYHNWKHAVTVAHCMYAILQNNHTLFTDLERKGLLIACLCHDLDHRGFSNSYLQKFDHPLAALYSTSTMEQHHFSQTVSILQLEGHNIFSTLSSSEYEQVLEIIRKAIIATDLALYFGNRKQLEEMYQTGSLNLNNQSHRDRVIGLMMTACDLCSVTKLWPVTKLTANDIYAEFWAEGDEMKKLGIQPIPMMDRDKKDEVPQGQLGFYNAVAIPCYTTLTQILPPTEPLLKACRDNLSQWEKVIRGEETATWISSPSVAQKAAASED
inhibition [1] [%],IC50 [2] [µM],IC50 [3] [µM],inhibition [5] [%],inhibition [6] [%],inhibition [7] [%],inhibition [8] [%],inhibition [9] [%],inhibition [10] [%],inhibition [11] [%],inhibition [12] [%],inhibition [13] [%],inhibition [14] [%],inhibition [15] [%],inhibition [16] [%],remaining at 1 h [17] [%],remaining at 1 h [18] [%],remaining at 1 h [19] [%],remaining at 1 h [20] [%],remaining at 1 h [21] [%],Structure (SMILES),other results
98.3,0.0003,0.0008,24.9,43,0.9,6.4,0,10.8,9.6,16.7,3.7,28.3,0.1,8.3,46.2,48.1,32.3,13.7,62.5,Cc1cnc2c(-c3ccc(Oc4ncccc4-c4ccncc4)cc3)cn(C)c2c1,IC50 [4]: 0.0012 µM
85.3,0.128,–,–,–,–,–,–,–,–,–,–,–,–,–,–,–,–,–,–,Cn1cc(-c2ccc(Oc3nccc(-c4cncnc4)n3)cc2)c2nc3ccccc3cc21,–
76.3,0.116,–,–,–,–,–,–,–,–,–,–,–,–,–,–,–,–,–,–,Cn1cc(-c2cccc(Oc3nccc(-c4ccc(F)cc4)n3)c2)c2nc3ccccc3cc21,–
68.9,0.552,0.372,–,–,–,–,–,–,–,–,–,–,–,–,72.5,50.3,68.6,0,48.8,Cn1cc(C2CCC(Oc3nccnc3-c3cncnc3)CC2)c2ncccc21 (stereo unspecified),–
94.8,0.0191,0.0311,8.9,14.2,0.3,9.4,1.3,19.5,9.4,17.3,6,20.2,3.3,21.8,83.1,76.1,77,68.3,85.2,Cn1cc(-c2ccc(Oc3nccnc3-c3cncnc3)cc2)c2nc3ccccc3cc21,–
89.3,0.0209,0.122,16.1,40.8,4.5,27.5,7.9,34.7,8.2,19,16.7,27.2,27.3,38.5,17.3,60.4,52,38.1,75.4,Cn1cc(-c2cccc(Oc3nccc(-c4cn[nH]c4)n3)c2)c2nc3ccccc3cc21,–
76.9,0.177,–,–,–,–,–,–,–,–,–,–,–,–,–,–,–,–,–,–,Cn1cc(-c2ccc(Oc3nccnc3-c3ccc(F)cc3)cc2)c2nc3ccccc3cc21,–
78,0.136,0.552,–,–,–,–,–,–,–,–,–,–,–,–,5.9,8.5,43.3,0,12.2,Cn1cc(C2=CCC(Oc3nccnc3-c3cncnc3)CC2)c2ncccc21 (stereo unspecified),–
72.4,0.103,–,–,–,–,–,–,–,–,–,–,–,–,–,–,–,–,–,–,COc1ccc(-c2ccnc(Oc3cccc(-c4cn(C)c5cc6ccccc6nc45)c3)n2)cc1,–
72.3,0.153,0.132,–,–,–,–,–,–,–,–,–,–,–,–,–,–,–,–,–,COc1ccc(-c2nccnc2Oc2ccc(-c3cn(C)c4cc5ccccc5nc34)cc2)cc1,–
93.1,0.0292,0.167,15.7,76.2,0.3,21.5,5.6,1,16,33.3,5.8,19.5,44.6,76.3,0.4,0.6,1.3,0.6,8.2,Cn1cc(-c2cccc(Oc3nccc(N4CCOCC4)n3)c2)c2nc3ccccc3cc21,–
95,0.0182,0.0903,11.4,38.5,1.1,4.8,4.2,57,1.5,23.6,4.5,14,24.4,43.8,44.7,3.9,40.3,4.5,39.8,Cn1cc(-c2cccc(Oc3nccc(-c4cncnc4)n3)c2)c2nc3ccccc3cc21,–
76.3,0.267,1.45,–,–,–,–,–,–,–,–,–,–,–,–,–,–,–,–,–,Cn1cc(-c2cccc(Oc3nccnc3-c3cncnc3)c2)c2nc3ccccc3cc21,–
79.7,0.071,0.141,11.3,16.1,0.7,9.8,4.1,25.4,0.1,19.3,5.9,53.1,3.1,5.7,68,70.5,55.3,40.7,77,Cn1cc(-c2ccc(Oc3nccnc3-c3ccncc3)cc2)c2ncc(Cl)cc21,–
